The values below come from patent US20250304567A1, “PYRROLIDIONE DERIVATIVES AS INHIBITORS OF NF KAPPA B INDUCING KINASE” (priority 2022, published 2025).

Each structure is given as a SMILES string.

For test [1], the target named is Recombinant Human NF-kappaB-Inducing Kinase (NIK/MAP3K14) (Homo sapiens, UniProt Q99558). Put plainly: Inhibition of auto-phosphorylation of recombinant human NIK/MAP3K14 activity (AlphaScreen). Format: biochemical. As to conditions: 5 μM ATP, 1 nM NIK, average if tested more than once. The method, boiled down: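 AlphaScreen detection of phospho-Ser176/180 after 1 nM GST-NIK auto-phosphorylates for 2 h at 25 °C with 5 μM ATP (50 mM Tris pH 7.5, 0.7% DMSO). IC50s come from sigmoidal curves of % inhibition against log dose, using enzyme-free, ATP-free low controls and full-activity high controls.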

The subject of test [2] is p-IKKa levels in L363 (NIK translocated multiple myeloma) cells. Nature of the test: Effect of compounds on p-IKKa levels in L363 (NIK translocated multiple myeloma) cells (AlphaLISA SureFire Ultra p-IKKa Ser176/180). It counts as cell-based, human. The conditions noted are these: Homo sapiens, L-363, p-IKKa levels in L363 cells; average if tested more than once; read-out: Assay 2 IC50. The method, boiled down:
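Phospho-IKKa (Ser176/180) in lysates quantified by AlphaLISA after 6 h compound exposure, 11-point threefold dilutions, 0.3% DMSO. L363 cells were pre-stimulated overnight and assayed with 250 ng/ml BAFF and 10 μM MG132; % inhibition fitted sigmoidally for IC50, duplicate curves.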
In general terms: Alpha assays give light when donor and acceptor beads are brought close together.

Recombinant Human NF-kappaB-Inducing Kinase (NIK/MAP3K14), sequence (Q99558 whole entry): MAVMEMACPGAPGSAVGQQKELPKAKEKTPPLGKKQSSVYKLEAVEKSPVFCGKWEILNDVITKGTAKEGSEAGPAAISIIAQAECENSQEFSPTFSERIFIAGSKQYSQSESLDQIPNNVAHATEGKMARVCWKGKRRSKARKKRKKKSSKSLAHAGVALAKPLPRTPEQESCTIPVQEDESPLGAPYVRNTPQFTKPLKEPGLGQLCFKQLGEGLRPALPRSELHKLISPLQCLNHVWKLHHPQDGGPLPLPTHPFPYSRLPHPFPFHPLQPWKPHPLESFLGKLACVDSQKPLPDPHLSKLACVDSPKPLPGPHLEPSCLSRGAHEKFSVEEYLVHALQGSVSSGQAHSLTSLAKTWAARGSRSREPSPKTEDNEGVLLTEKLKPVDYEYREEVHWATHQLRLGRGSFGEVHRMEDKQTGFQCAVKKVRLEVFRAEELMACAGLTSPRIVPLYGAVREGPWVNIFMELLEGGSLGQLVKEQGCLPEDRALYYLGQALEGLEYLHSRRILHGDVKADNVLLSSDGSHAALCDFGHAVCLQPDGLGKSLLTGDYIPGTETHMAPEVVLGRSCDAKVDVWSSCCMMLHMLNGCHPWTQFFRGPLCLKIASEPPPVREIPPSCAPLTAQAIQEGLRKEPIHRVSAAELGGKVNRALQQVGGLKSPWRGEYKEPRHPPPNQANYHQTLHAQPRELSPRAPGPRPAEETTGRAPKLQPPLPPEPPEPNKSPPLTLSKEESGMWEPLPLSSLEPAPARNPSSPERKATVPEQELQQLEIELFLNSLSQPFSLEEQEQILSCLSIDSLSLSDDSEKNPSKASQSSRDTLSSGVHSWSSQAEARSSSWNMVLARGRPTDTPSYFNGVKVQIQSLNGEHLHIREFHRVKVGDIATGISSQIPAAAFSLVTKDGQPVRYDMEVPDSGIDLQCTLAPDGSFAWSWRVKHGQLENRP

On to `CN1CC[C@@](O)(c2cccc(-c3nc(-c4ccnc(Nc5cn(C6CCC6)cn5)n4)cs3)c2)C1=O` [Example 124, (R)-3-(3-(4-(2-((1-cyclobutyl-1H-imidazol-4-yl)amino)pyrimidin-4-yl)thiazol-2-yl)phenyl)-3-hydroxy-1-methylpyrrolidin-2-one], for which the IC50 is below 100 nM in test [1] and above 501 nM in test [2].
In the case of `CN1CC[C@@](O)(c2cccc(-c3nc(-c4ccnc(Nc5cn(CC6CCC6)cn5)n4)cs3)c2)C1=O` [Example 125, (R)-3-(3-(4-(2-((1-(cyclobutylmethyl)-1H-imidazol-4-yl)amino)pyrimidin-4-yl)thiazol-2-yl)phenyl)-3-hydroxy-1-methylpyrrolidin-2-one], the figures for the IC50 in test [1] and in test [2] were below 100 nM and above 501 nM, respectively.
As for `CN1CC[C@@](O)(c2cccc(-c3csc(-c4ccnc(NC5COC5)n4)n3)c2)C1=O` [Example 128, (R)-3-hydroxy-1-methyl-3-(3-(2-(2-(oxetan-3-ylamino)pyrimidin-4-yl)thiazol-4-yl)phenyl)pyrrolidin-2-one], the IC50 in test [1] is below 100 nM; in test [2], 100 to 500 nM.
Consider `CN1CC[C@@](O)(c2cccc(-c3nc(-c4ccnc(NC5CCC5)n4)cs3)c2)C1=O` [Example 131, (R)-3-(3-(4-(2-(cyclobutylamino)pyrimidin-4-yl)thiazol-2-yl)phenyl)-3-hydroxy-1-methylpyrrolidin-2-one], for which the IC50 in test [1] is below 100 nM; in test [2], above 501 nM.
`CN1CC[C@@](O)(c2cccc(-c3ccn(-c4ccnc(NC5COC5)n4)n3)c2)C1=O` [Example 132, (R)-3-hydroxy-1-methyl-3-(3-(1-(2-(oxetan-3-ylamino)pyrimidin-4-yl)-1H-pyrazol-3-yl)phenyl)pyrrolidin-2-one]: the IC50 in test [1] is below 100 nM; in test [2], 100 to 500 nM.
Consider `CN1CC[C@@](O)(c2cccc(-c3nc(-c4ccnc(NC5CC5)n4)cs3)c2)C1=O` [Example 137, (R)-3-(3-(4-(2-(cyclopropylamino)pyrimidin-4-yl)thiazol-2-yl)phenyl)-3-hydroxy-1-methylpyrrolidin-2-one], for which the IC50 is below 100 nM in test [1] and above 501 nM in test [2].
For `Cc1nn(C(F)F)cc1Nc1nccc(-c2csc(-c3cccc([C@]4(O)CCN(C)C4=O)c3)n2)n1` [Example 140, (R)-3-(3-(4-(2-((1-(difluoromethyl)-3-methyl-1H-pyrazol-4-yl)amino)pyrimidin-4-yl)thiazol-2-yl)phenyl)-3-hydroxy-1-methylpyrrolidin-2-one], the IC50 in test [1] and in test [2] was below 100 nM throughout.
For `CN1CC[C@@](O)(c2cccc(-c3nc(-c4ccnc(Nc5cnn(CC(F)F)c5)n4)cs3)c2)C1=O` [Example 141, (R)-3-(3-(4-(2-((1-(2,2-difluoroethyl)-1H-pyrazol-4-yl)amino)pyrimidin-4-yl)thiazol-2-yl)phenyl)-3-hydroxy-1-methylpyrrolidin-2-one], the IC50 in test [1] and in test [2] was below 100 nM throughout.
As for `Cc1nccc(Nc2nccc(-c3csc(-c4cccc([C@]5(O)CCN(C)C5=O)c4)n3)n2)n1` [Example 159, (R)-3-Hydroxy-1-methyl-3-(3-(4-(2-((2-methylpyrimidin-4-yl)amino)pyrimidin-4-yl)thiazol-2-yl)phenyl)pyrrolidin-2-one], the IC50 is below 100 nM in test [1] and above 501 nM in test [2].
Turning to `CN1CC[C@@](O)(c2cccc(-c3nc(-c4ccnc(Nc5ccnn5C5COC5)n4)cs3)c2)C1=O` [Example 160, (R)-3-Hydroxy-1-methyl-3-(3-(4-(2-((1-(oxetan-3-yl)-1H-pyrazol-5-yl)amino)pyrimidin-4-yl)thiazol-2-yl)phenyl)pyrrolidin-2-one], the figures for the IC50 in test [1] and in test [2] were below 100 nM and above 501 nM, respectively.
For `COc1cccnc1Nc1nccc(-c2csc(-c3cccc([C@]4(O)CCN(C)C4=O)c3)n2)n1` [Example 161, (R)-3-Hydroxy-3-(3-(4-(2-((3-methoxypyridin-2-yl)amino)pyrimidin-4-yl)thiazol-2-yl)phenyl)-1-methylpyrrolidin-2-one], the IC50 in test [1] and in test [2] was above 501 nM each time.
As for `COc1ccnc(Nc2nccc(-c3csc(-c4cccc([C@]5(O)CCN(C)C5=O)c4)n3)n2)c1` [Example 162, (R)-3-Hydroxy-3-(3-(4-(2-((4-methoxypyridin-2-yl)amino)pyrimidin-4-yl)thiazol-2-yl)phenyl)-1-methylpyrrolidin-2-one], the IC50 is below 100 nM in test [1] and above 501 nM in test [2].
Consider `CN1CC[C@@](O)(c2cccc(-c3nc(-c4ccnc(Nc5ncccc5F)n4)cs3)c2)C1=O` [Example 163, (R)-3-(3-(4-(2-((3-Fluoropyridin-2-yl)amino)pyrimidin-4-yl)thiazol-2-yl)phenyl)-3-hydroxy-1-methylpyrrolidin-2-one], for which the IC50 is 100 to 500 nM in test [1] and above 501 nM in test [2].
As to `CN1CC[C@@](O)(c2cccc(-c3nc(-c4ccnc(Nc5cc(C6CC6)nn5C)n4)cs3)c2)C1=O` [Example 164, (R)-3-(3-(4-(2-((3-Cyclopropyl-1-methyl-1H-pyrazol-5-yl)amino)pyrimidin-4-yl)thiazol-2-yl)phenyl)-3-hydroxy-1-methylpyrrolidin-2-one], the IC50 was below 100 nM in test [1] and 100 to 500 nM in test [2].
Regarding `CN1CC[C@@](O)(c2cccc(-c3nc(-c4ccnc(Nc5nccc(C(F)(F)F)n5)n4)cs3)c2)C1=O` [Example 165, (R)-3-Hydroxy-1-methyl-3-(3-(4-(2-((4-(trifluoromethyl)pyrimidin-2-yl)amino)pyrimidin-4-yl)thiazol-2-yl)phenyl)pyrrolidin-2-one], the results for the IC50 in test [1] and in test [2] were 100 to 500 nM and above 501 nM, respectively.
For `CN1CC[C@@](O)(c2cccc(-c3nc(-c4ccnc(Nc5cccnc5C(F)(F)F)n4)cs3)c2)C1=O` [Example 166, (R)-3-Hydroxy-1-methyl-3-(3-(4-(2-((2-(trifluoromethyl)pyridin-3-yl)amino)pyrimidin-4-yl)thiazol-2-yl)phenyl)pyrrolidin-2-one], the concentration for half-maximal inhibition (IC50) in test [1] is below 100 nM; in test [2] it was above 501 nM.
For `CN1CC[C@@](O)(c2cccc(-c3nc(-c4ccnc(Nc5cccc(OC(F)(F)F)n5)n4)cs3)c2)C1=O` [Example 167, (R)-3-Hydroxy-1-methyl-3-(3-(4-(2-((6-(trifluoromethoxy)pyridin-2-yl)amino)pyrimidin-4-yl)thiazol-2-yl)phenyl)pyrrolidin-2-one] the same measures were below 100 nM and above 501 nM.
On to `CN1CC[C@@](O)(c2cccc(-c3nc(-c4ccnc(Nc5cccc(OC(F)F)n5)n4)cs3)c2)C1=O` [Example 168, (R)-3-(3-(4-(2-((6-(Difluoromethoxy)pyridin-2-yl)amino)pyrimidin-4-yl)thiazol-2-yl)phenyl)-3-hydroxy-1-methylpyrrolidin-2-one], for which the IC50 was below 100 nM in test [1] and above 501 nM in test [2].
The like results for `CN1CC[C@@](O)(c2cccc(-c3nc(-c4ccnc(Nc5cccc(C(F)(F)F)n5)n4)cs3)c2)C1=O` [Example 169, (R)-3-Hydroxy-1-methyl-3-(3-(4-(2-((6-(trifluoromethyl)pyridin-2-yl)amino)pyrimidin-4-yl)thiazol-2-yl)phenyl)pyrrolidin-2-one] were, in that order, below 100 nM and above 501 nM.
As for `CNc1nccc(-c2csc(-c3cccc([C@]4(O)CCN(C)C4=O)c3)n2)n1` [Example 170], the IC50 in test [1] is 100 to 500 nM; in test [2] it was above 501 nM.

A word on the IC50: it is the concentration that gives 50% inhibition.
